Assay results: article PMC8304783, “Antiadhesive Properties of Imidazolium Ionic Liquids Based on (−)-Menthol Against Candida spp” (International Journal of Molecular Sciences, 2021)

System: C. albicans isolates
Test: Detachment of adherent clinical isolates from polystyrene (isolates taken together)
Format: cell-based
Settings: in most cases, 1, 2 and 4 times MIC90
Protocol: Post-adherence treatment with ILs was performed in a similar manner to that described previously by our team. Candida spp. suspensions were prepared by centrifuging YPD-grown cultures and resuspending fungal mass in PBS to an OD600 = 0.6. Sterile 96-well plates were inoculated with the prepared suspensions and incubated for 2 h at 37 °C to induce fungal adhesion. Afterwards, adherent cells were washed with PBS to remove planktonic cells and treated with ILs (concentrations equivalent to 1, 2 or 4 × MIC90 for each fungi) for 2 h at 37 °C. Then, each well was washed with PBS and adherent cells were fixed with 0.1% CV solution for 5 min, and washed with PBS. Cells were then treated with a solution of isopropanol 0.04 N HCL with 0.1% SDS to permeabilize adherent cells and release the CV dye. The absorbance of CV was measured at 590 nm (ASYS UVM 340 Biogenet). The percentage of cells that were removed was determined in comparison to adherent cells treated with PBS only (designated 100% adhesion).
The effect of imidazolium ILs based on of (1R,2S,5R)‐(−)‐menthol was evaluated on clinical, fluconazole(FLC)‐resistant and FLC‐sensitive C. albicans isolates. C. albicans Gu4 and Gu5 strains were isolated from a patient before and after fluconazole administration, respectively.
Azole‐resistance of Gu5 origins in overexpression of CDR1 and CD R2. C. albicans B3 and B4 strains […]

## CCCCCCCCCn1cc[n+](CO[C@@H]2C[C@H](C)CC[C@H]2C(C)C)c1 [1a, 1-[(1R,2S,5R)-(−)-menthoxymethyl]-3-nonylimidazolium chloride]
  Influence on adherent properties of C. albicans isolates: did not influence
